pEC50: −log10 of the molar value. Counter-ions that a name gives are not always drawn.
System: eNOS promoter
Assay: Activation of eNOS transcription (eNOS promoter-luciferase reporter gene assay)
Format: cell-based, human
Details: 18 h incubation; for pEC50: EC50 of transcription induction ratio vs compound concentration, determined graphically, human endothelial cell line stably transfected with eNOS promoter-luciferase construct; for maximal fold induction / TIR(max): maximum transcription induction ratio (luciferase activity with compound / solvent alone), human endothelial cell line with eNOS promoter-luciferase construct; for maximal fold induction: read-out: TIR(max)
Method: Measurement of Activation of eNOS Transcription
Activation of eNOS transcription was measured as described in detail in Li et al. “Activation of protein kinase C alpha and/or epsilon enhances transcription of the human endothelial nitric oxide synthase gene”, Mol. Pharmacol. 1998; 53: 630-637.
Briefly, a 3.5 kB long fragment 5′ of the starting codon of the eNOS gene was cloned, sequenced and cloned in firefly luciferase expression plasmids to monitor activation of the eNOS promoter by reporter gene activity. A human endothelial cell line stable transfected and expressing this promoter-reporter construct was used for compound testing. Cells were incubated for 18 h with compounds.
All compounds were dissolved in sterile DMSO. A final concentration of 0.5% DMSO in complete medium was allowed. Induction of reporter gene expression in these cells was measured using a standard luciferase assay system (Promega, Cat. No E150) according to the manufacturer's instructions. Luciferase induction in cells incubated with compounds were compared to those incubated with solvent alone. The ratio of both activities (transcription induction ratio, TIR) was plotted as a function of compound concentration. Typically, TIR values started at low concentrations at a ratio of 1, indicating no compound effect, and extended up to a maximum TIR value TIR(max) which indicates the increase of the eNOS transcription. EC50 values of transcription induction ratios as a function of compound concentration were determined graphically.

| Compound | pEC50 | maximal fold induction | TIR(max) |
| --- | --- | --- | --- |
| CCSc1ncc(C(=O)NC2CCCc3ccccc3C2)c(N)n1 (stereo not shown) [Compound 74, 4-AMINO-2-ETHYLSULFANYL-PYRIMIDINE-5-CARBOXYLIC ACID (6,7,8,9-TETRAHYDRO-5H-BENZOCYCLOHEPTEN-6-YL)-AMIDE] | 4.47 | 3.1 | – |
| Cc1nc2cc(C(=O)N[C@H]3CCCc4ccccc4C3)ccc2[nH]1 [Compound 36, (S)-2-METHYL-1H-BENZOIMIDAZOLE-5-CARBOXYLIC ACID (6,7,8,9-TETRAHYDRO-5H-BENZOCYCLOHEPTEN-6-YL)-AMIDE HYDROCHLORIDE] | 7.30 | 3.3 | – |
| Cc1cc(C)c(C(=O)NC2CCCc3ccccc3C2)cn1 (single isomer, unassigned) [Compound 110, 4,6-DIMETHYL-N-(6,7,8,9-TETRAHYDRO-5H-BENZOCYCLOHEPTEN-6-YL)-NICOTINAMIDE] | 6.00 | 3.1 | – |
| Cc1ccc(C(=O)NC2CCCc3ccccc3C2)c(Cl)n1 (stereo not shown) [Compound 16, 2-CHLORO-6-METHYL-N-(6,7,8,9-TETRAHYDRO-5H-BENZOCYCLOHEPTEN-6-YL)-NICOTINAMIDE] | 7.42 | 2.9 | – |
| O=C(NC1CCCc2ccccc2C1)c1ccc2[nH]nnc2c1 (stereo not shown) [Compound 13, 1H-BENZOTRIAZOLE-5-CARBOXYLIC ACID (6,7,8,9-TETRAHYDRO-5H-BENZOCYCLOHEPTEN-6-YL)-AMIDE] | 5.06 | 2 | – |
| Cc1ccc(C(=O)NC2CCCc3ccccc3C2)c(O)n1 (stereo not shown) [Compound 11, 2-HYDROXY-6-METHYL-N-(6,7,8,9-TETRAHYDRO-5H-BENZOCYCLOHEPTEN-6-YL)-NICOTINAMIDE] | 5.68 | 2 | – |
| O=C(NC1CCCc2ccccc2C1)c1ccnc(N2CCCC2)c1 (single isomer, unassigned; (+)) [Compound 149, (+)-2-PYRROLIDIN-1-YL-N-(6,7,8,9-TETRAHYDRO-5H-BENZOCYCLOHEPTEN-6-YL)-ISONICOTINAMIDE] | 5.47 | 3 | – |
| O=C(N[C@H]1CCCc2ccccc2C1)c1ccc2nc[nH]c2c1 [Compound 126, (S)-3H-BENZOIMIDAZOLE-5-CARBOXYLIC ACID (6,7,8,9-TETRAHYDRO-5H-BENZOCYCLOHEPTEN-6-YL)-AMIDE] | 6.45 | 2.9 | – |
| Cc1cc(C(=O)NC2CCCc3ccccc3C2)c(C)n1-c1ccccc1 (stereo not shown) [Compound 96, 2,5-DIMETHYL-1-PHENYL-1H-PYRROLE-3-CARBOXYLIC ACID (6,7,8,9-TETRAHYDRO-5H-BENZOCYCLOHEPTEN-6-YL)-AMIDE] | 7.70 | 3 | – |
| CN(C)c1ccc(C(=O)NC2CCCc3ccccc3C2)cn1 (stereo not shown) [Compound 81, 6-DIMETHYLAMINO-N-(6,7,8,9-TETRAHYDRO-5H-BENZOCYCLOHEPTEN-6-YL)-NICOTINAMIDE] | 7.28 | 3.3 | – |
| O=C(NC1CCCc2ccccc2C1)c1cccc2snnc12 (stereo not shown) [Compound 22, BENZO[1,2,3]THIADIAZOLE-4-CARBOXYLIC ACID-N-(6,7,8,9-TETRAHYDRO-5H-BENZOCYCLOHEPTEN-6-YL)-AMIDE] | 7.08 | 3.1 | – |
| O=C(N[C@H]1CCCc2ccccc2C1)c1ccc(N2CCCC2)nc1 [Compound 118, (S)-6-PYRROLIDIN-1-YL-N-(6,7,8,9-TETRAHYDRO-5H-BENZOCYCLOHEPTEN-6-YL)-NICOTINAMIDE] | 6.85 | 3 | – |
| O=C(NC1CCCc2ccccc2C1)c1ccc(C(F)(F)F)nc1 (single isomer, unassigned) [Compound 37, N-(6,7,8,9-TETRAHYDRO-5H-BENZOCYCLOHEPTEN-6-YL)-6-TRIFLUOROMETHYL-NICOTINAMIDE] | 6.55 | 2.9 | – |
| Cc1nc(N)c(C(=O)N[C@H]2CCCc3ccccc3C2)nc1C [Compound 115, (S)-3-AMINO-5,6-DIMETHYL-PYRAZINE-2-CARBOXYLIC ACID (6,7,8,9-TETRAHYDRO-5H-BENZOCYCLOHEPTEN-6-YL)-AMIDE] | 7.70 | 3 | – |
| Cc1ccc(C(=O)NC2CCCc3ccccc3C2)c(C)n1 (single isomer, unassigned) [Compound 112, 2,6-DIMETHYL-N-(6,7,8,9-TETRAHYDRO-5H-BENZOCYCLOHEPTEN-6-YL)-NICOTINAMIDE] | 7.40 | 3.1 | – |
| Cc1cc(C(=O)NC2CCCc3ccccc3C2)c(C)[nH]1 (single isomer, unassigned; (-)) [Compound 50, (−)-2,5-DIMETHYL-1H-PYRROLE-3-CARBOXYLIC ACID (6,7,8,9-TETRAHYDRO-5H-BENZOCYCLOHEPTEN-6-YL)-AMIDE] | 5.74 | – | 3 |

| Compound | pEC50 | maximal fold induction | TIR(max) |
| --- | --- | --- | --- |
| Cc1cc(C)c(C(=O)NC2CCCc3ccccc3C2)c(N)n1 (stereo not shown) [Compound 56, 2-AMINO-4,6-DIMETHYL-N-(6,7,8 9-TETRAHYDRO-5H-BENZOCYCLOHEPTEN-6-YL)-NICOTINAMIDE] | 6.77 | – | 3 |
| Cc1cc(C(=O)NC2CCCc3ccccc3C2)c(C)n1Cc1ccncc1 (single isomer, unassigned; (+)) [Compound 47, (+)-2,5-DIMETHYL-1-PYRIDIN-4-YLMETHYL-1H-PYRROLE-3-CARBOXYLIC ACID (6,7,8,9-TETRAHYDRO-5H-BENZOCYCLOHEPTEN-6-YL)-AMIDE] | 7.70 | 3.4 | – |
| COc1ccc(C(=O)N[C@H]2CCCc3ccccc3C2)cn1 [Compound 130, (S)-6-METHOXY-N-(6,7,8,9-TETRAHYDRO-5H-BENZOCYCLOHEPTEN-6-YL)-NICOTINAMIDE] | 6.96 | 3.1 | – |
| CNc1cc(C(=O)NC2CCCc3ccccc3C2)ccc1C (stereo not shown) [Compound 135, 4-METHYL-3-METHYLAMINO-N-(6,7,8,9-TETRAHYDRO-5H-BENZOCYCLOHEPTEN-6-YL)-BENZAMIDE] | 6.23 | 3 | – |
| CNc1nc(C)ccc1C(=O)NC1CCCc2ccccc2C1 (single isomer, unassigned) [Compound 123, 6-METHYL-2-METHYLAMINO-N-(6,7,8,9-TETRAHYDRO-5H-BENZOCYCLOHEPTEN-6-YL)-NICOTINAMIDE] | 6.59 | 2.9 | – |
| Nc1c(C(=O)NC2CCCc3ccccc3C2)cnn1-c1ccccc1 (stereo not shown) [Compound 61, 5-AMINO-1-PHENYL-1H-PYRAZOLE-4-CARBOXYLIC ACID (6,7,8,9-TETRAHYDRO-5H-BENZOCYCLOHEPTEN-6-YL)-AMIDE] | 5.64 | 3.4 | – |
| O=C(NC1CCCc2ccccc2C1)c1cccc2[nH]ccc12 (stereo not shown) [Compound 12, 1H—INDOLE-4-CARBOXYLIC ACID (6,7,8,9-TETRAHYDRO-5H-BENZOCYCLOHEPTEN-6-YL)-AMIDE] | 6.87 | 3 | – |
| Nc1ccnc(C(=O)NC2CCCc3ccccc3C2)c1 (stereo not shown) [Compound 146, 4-AMINO-PYRIDINE-2-CARBOXYLIC ACID (6,7,8,9-TETRAHYDRO-5H-BENZOCYCLOHEPTEN-6-YL)-AMIDE] | 5.62 | 2.9 | – |
| O=C(NC1CCCc2ccccc2C1)c1ccc(F)cc1 (single isomer, unassigned; (+)) [Compound 1b, (+)-4-Fluoro-N-(6,7,8,9-tetrahydro-5H-benzocyclohepten-6-yl)-benzamide] | 5.22 | – | 2.9 |
| O=C(NC1CCCc2ccccc2C1)c1ccc(N2CCCC2)nc1 (stereo not shown) [Compound 82, 6-PYRROLIDIN-1-YL-N-(6,7,8,9-TETRARYDRO-5H-BENZOCYCLOHEPTEN-6-YL)-NICOTINAMIDE] | 6.55 | – | 3.2 |
| NS(=O)(=O)c1cc(C(=O)NC2CCCc3ccccc3C2)ccc1Cl (stereo not shown) [Compound 138, 4-CHLORO-3-SULFAMOYL-N-(6,7,8,9-TETRAHYDRO-5H-BENZOCYCLOHEPTEN-6-YL)-BENZAMIDE] | 5.00 | 3 | – |
| Cc1nc(C(F)(F)F)ccc1C(=O)NC1CCCc2ccccc2C1 (single isomer, unassigned) [Compound 39, 2-METHYL-N-(6,7,8,9-TETRAHYDRO-5H-BENZOCYCLOHEPTEN-6-YL)-6-TRIFLUOROMETHYL-NICOTINAMIDE] | 6.30 | 2.9 | – |
| CN1CC(=O)Nc2cc(C(=O)NC3CCCc4ccccc4C3)ccc21 (stereo not shown) [Compound 127, 1-METHYL-3-OXO-1,2,3,4-TETRAHYDRO-QUINOXALINE-6-CARBOXYLIC ACID (6,7,8,9-TETRAHYDRO-5H-BENZOCYCLOHEPTEN-6-YL)-AMIDE] | 5.31 | 2.7 | – |
| Cc1cnc(C(=O)NC2CCCc3ccccc3C2)cn1 (single isomer, unassigned) [Compound 33, 5-METHYL-PYRAZINE-2-CARBOXYLIC ACID (6,7,8,9-TETRAHYDRO-5H-BENZOCYCLOHEPTEN-6-YL)-AMIDE] | 5.48 | – | 2.6 |
| COCc1ccc(C(=O)N[C@H]2CCCc3ccccc3C2)cn1 [Compound 133, (S)-6-METHOXYMETHYL-N-(6,7,8,9-TETRAHYDRO-5H-BENZOCYCLOHEPTEN-6-YL)-NICOTINAMIDE] | 6.89 | 3.1 | – |
| O=C(NC1CCCc2ccccc2C1)c1cn2ccccc2n1 (stereo not shown) [Compound 85, IMIDAZO[1,2-A]PYRIDINE-2-CARBOXYLIC ACID (6,7,8,9-TETRAHYDRO-5H-BENZOCYCLOHEPTEN-6-YL)-AMIDE] | 4.82 | 3 | – |

Reference: patent US7709478B2, “Acylated 6,7,8,9-tetrahydro-5H-benzocycloheptenyl amines and their use as pharmaceutical agents” (sanofi-aventis Deutschland GmbH, priority 2001, dated 2010)
